According to patent publication US6593455B2, “Tripeptide amides that block viral infectivity and methods of use thereof” (Tripep AB, priority 2001, dated 2003):
Ends that are not written are not given here.

tested on: HIV-1 SF-2; assay: HIV-1 infectivity assay in H9 cells (p24 production and RT activity in culture supernatants); type: cell-based; conditions: approximately 100 μm peptide
Description: The tripeptide amides made according to EXAMPLE 1 were used in several HIV-1 infectivity assays to determine the ability of said tripeptide amides to inhibit HIV replication and/or infection. The efficiency of HIV-1 replication and status of HIV-1 infection was monitored by reverse transcriptase activity and the concentration of p24 protein in the cell supernatant. (See e.g., U.S. Pat. Nos. 5,627,035 and 6,258,932B1, herein expressly incorporated by reference in their entireties, which describe similar HIV infectivity assays and others that can be used to analyze the tripeptide amides described herein). EXAMPLE 2 describes an approach that was used to screen several tripeptide amides for their ability to inhibit HIV-1 infection.
In this example, the methods that were used to analyze the ability of various tripeptide amides to inhibit HIV-1 replication are disclosed. Approximately 10^5 of H9 cells were infected with HIV-1 SF-2 at 25 TCID50 to test the inhibitory effect of the following synthesized tripeptides: Ser-Ile-Leu-NH2, Ile-Leu-Asp-NH2, Gly-Pro-Lys-NH2, Pro-Lys-Glu-NH2, Lys-Glu-Pro-NH2, Glu-Pro-Phe-NH2, Arg-Asp-Tyr-NH2, Asp-Tyr-Val-NH2, Tyr-Lys-Thr-NH2, Arg-Ala-Glu-NH2, Ala-Glu-Gln-NH2, Glu-Gln-Ala-NH2, Val-Lys-Asn-NH2, Thr-Glu-Thr-NH2, Leu-Leu-Val-NH2, Val-Gln-Asn-NH2, Gln-Asn-Ala,-NH2, Asn-Ala-Asn-NH2, Asn-Pro-Asp-NH2, Pro-Asp-Cys-NH2, Cys-Lys-Thr-NH2, Thr-Ile-Leu-NH2, Pro-Gly-Ala-NH2, Thr-Leu-Glu-NH2, Thr-Ala-Cys-NH2, Ala-Cys-Gln-NH2, Gln-Gly-Val-NH2, Pro-Gly-His-NH2, and Arg-Val-Leu-NH2. Accordingly, the H9 cells were resuspended with or without the different peptides (approximately 100 μm) in 1 ml of RPMI 1640 medium supplemented with 10% (v/v) heat-inactivated fetal bovine serum (FBS), penicillin (100 μ/ml), and streptomycin (100 μ/ml), all available through GIBCO, and Polybrene (2 μg/ml), available through Sigma. Thereafter, viruses were added at 25 TCID50 in a volume of 20-30 μl. Cells were incubated with virus at 37° C. for 1 hr then pelleted at 170×g for 7 minutes. The cells were then washed three times in RPMI medium with or without peptides at room temperature and pelleted at 170×g for 7 minutes, as above. After the final wash, the cells were resuspended in RPMI culture medium containing the peptides in a 24-well plate (Costar corporation) and were kept at 37° C. in 5% CO2 with humidity.
Culture supernatants were collected and analyzed when the medium was changed at 4, 7, 10, and 14 days post infection. To monitor the replication of virus, reverse transcriptase (RT) activity in the supernatants was assayed using a commercially available Lenti-RT activity kit. (Cavidi Tech, Uppsala, Sweden). The amount of RT was determined with the aid of a regression line of standards.
The presence of p24 in the supernatants was determined using a commercially available HIV p24 antigen detection kit (ELISA kit from Abbott Laboratories, North Chicago, U.S.A.). In some cases, serial dilutions of the supernatants were made so as to more accurately detect p24 concentration.

Row | Substance | inhibition of HIV-1 infection
1 | Ala-Cys-Gln-NH2 | effectively inhibit HIV-1 infection
2 | Ala-Glu-Gln-NH2 | effectively inhibit HIV-1 infection
3 | Arg-Ala-Glu-NH2 | effectively inhibit HIV-1 infection
4 | Arg-Asp-Tyr-NH2 | effectively inhibit HIV-1 infection
5 | Arg-Val-Leu-NH2 | effectively inhibit HIV-1 infection
6 | Asn-Ala-Asn-NH2 | effectively inhibit HIV-1 infection
7 | Asn-Pro-Asp-NH2 | effectively inhibit HIV-1 infection
8 | Asp-Tyr-Val-NH2 | effectively inhibit HIV-1 infection
9 | Cys-Lys-Thr-NH2 | effectively inhibit HIV-1 infection
10 | Gln-Asn-Ala-NH2 | effectively inhibit HIV-1 infection
11 | Gln-Gly-Val-NH2 | effectively inhibit HIV-1 infection
12 | Glu-Gln-Ala-NH2 | effectively inhibit HIV-1 infection
13 | Glu-Pro-Phe-NH2 | effectively inhibit HIV-1 infection
14 | Gly-Pro-Lys-NH2 | effectively inhibit HIV-1 infection
15 | Ile-Leu-Asp-NH2 | effectively inhibit HIV-1 infection
16 | Leu-Leu-Val-NH2 | effectively inhibit HIV-1 infection
17 | Lys-Glu-Pro-NH2 | effectively inhibit HIV-1 infection
18 | Pro-Asp-Cys-NH2 | effectively inhibit HIV-1 infection
19 | Pro-Gly-Ala-NH2 | effectively inhibit HIV-1 infection
20 | Pro-Gly-His-NH2 | effectively inhibit HIV-1 infection
21 | Pro-Lys-Glu-NH2 | effectively inhibit HIV-1 infection
22 | Ser-Ile-Leu-NH2 | effectively inhibit HIV-1 infection
23 | Thr-Ala-Cys-NH2 | effectively inhibit HIV-1 infection
24 | Thr-Glu-Thr-NH2 | effectively inhibit HIV-1 infection
25 | Thr-Ile-Leu-NH2 | effectively inhibit HIV-1 infection
26 | Thr-Leu-Glu-NH2 | effectively inhibit HIV-1 infection
27 | Tyr-Lys-Thr-NH2 | effectively inhibit HIV-1 infection
28 | Val-Gln-Asn-NH2 | effectively inhibit HIV-1 infection
29 | Val-Lys-Asn-NH2 | effectively inhibit HIV-1 infection
